Key:
[1] = biological target: T1, biotinylated truncated STAT6 (123-632)-avi (Homo sapiens, UniProt P42226); assay: STAT6 HTRF binding assay; settings: 0.15 nM STAT6 (123-632)-avi, 20 nM fluorescein-labeled probe, 30 minutes at room temperature
T1 construct: 0.15 nM biotinylated truncated STAT6 (123-632)-avi purified from E. coli; made in house; host or cells: E. coli
T1 sequence (P42226 123-632 limits assumed): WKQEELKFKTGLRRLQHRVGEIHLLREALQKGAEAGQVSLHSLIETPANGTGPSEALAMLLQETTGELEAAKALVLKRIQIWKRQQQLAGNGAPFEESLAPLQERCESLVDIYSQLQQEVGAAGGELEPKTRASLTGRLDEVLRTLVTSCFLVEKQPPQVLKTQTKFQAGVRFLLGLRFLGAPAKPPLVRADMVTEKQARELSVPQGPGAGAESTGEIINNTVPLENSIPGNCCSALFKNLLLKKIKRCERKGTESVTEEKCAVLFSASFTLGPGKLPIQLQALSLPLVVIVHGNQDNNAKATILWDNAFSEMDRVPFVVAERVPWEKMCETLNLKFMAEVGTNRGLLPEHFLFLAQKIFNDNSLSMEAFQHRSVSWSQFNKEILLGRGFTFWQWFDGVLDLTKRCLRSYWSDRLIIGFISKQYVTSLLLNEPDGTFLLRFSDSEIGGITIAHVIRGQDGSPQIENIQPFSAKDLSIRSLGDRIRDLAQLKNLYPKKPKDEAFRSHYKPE
Procedure: HTRF binding assays were perforned using 0.15 nM biotinylated truncated STAT6 (123-632)-avi purified from E. coli, 1× Streptavidin-terbium (CisBio) prepared by mixing SA-Tb in PPI detection buffer (CisBio), 20 nM proprietary fluorescein-labeled probe, and test compounds in assay buffer consisting of 50 mM HEPES-Na pH 7.5, 100 mM NaCl, 1 mM EDTA, 2 mM DTT, 0.1% Tween-20 with a final volume of 20 uL. Compound stocks were dissolved at 10 mM in 100% DMSO and 11 point titration with 3 fold serial dilution was performed in white, opaque 384 well microplates. Reaction plates were incubated at room temperature for 30 minutes. Plates were centrifuged at low rpm for 5 mins, and the ratio of fluorescence intensities were measured at emission wavelengths for fluorescein acceptor (520 nm) and terbium donor (495 nm) on Envision Plate reader. % Inhibition was calculated from the 520/495 ratio generated by using proprietary positive control compound for 100% inhibition and DMSO only reactions for 0% inhibition. Data was processed and dose response curves were generated using GraphPad Prism to determine the concentration required for inhibiting 50% of the HTRF signal (IC50).
The letter codes for IC50 (μM) include: A (<0.1 μM); B (0.1-1 μM); C (>1-10 μM); D (>10-100 μM); E (>100 μM); and F (not tested).

STAT6 [2] = biological target: T2, STAT6 (Homo sapiens, UniProt P42226); assay: STAT6 HiBiT degradation in A549 (STAT6-HiBiT) cells; format: cell-based; settings: 24 h
T2 construct: endogenous in cells; host or cells: A549 (STAT6-HiBiT), endogenous locus tagged
T2 sequence (P42226 1-847): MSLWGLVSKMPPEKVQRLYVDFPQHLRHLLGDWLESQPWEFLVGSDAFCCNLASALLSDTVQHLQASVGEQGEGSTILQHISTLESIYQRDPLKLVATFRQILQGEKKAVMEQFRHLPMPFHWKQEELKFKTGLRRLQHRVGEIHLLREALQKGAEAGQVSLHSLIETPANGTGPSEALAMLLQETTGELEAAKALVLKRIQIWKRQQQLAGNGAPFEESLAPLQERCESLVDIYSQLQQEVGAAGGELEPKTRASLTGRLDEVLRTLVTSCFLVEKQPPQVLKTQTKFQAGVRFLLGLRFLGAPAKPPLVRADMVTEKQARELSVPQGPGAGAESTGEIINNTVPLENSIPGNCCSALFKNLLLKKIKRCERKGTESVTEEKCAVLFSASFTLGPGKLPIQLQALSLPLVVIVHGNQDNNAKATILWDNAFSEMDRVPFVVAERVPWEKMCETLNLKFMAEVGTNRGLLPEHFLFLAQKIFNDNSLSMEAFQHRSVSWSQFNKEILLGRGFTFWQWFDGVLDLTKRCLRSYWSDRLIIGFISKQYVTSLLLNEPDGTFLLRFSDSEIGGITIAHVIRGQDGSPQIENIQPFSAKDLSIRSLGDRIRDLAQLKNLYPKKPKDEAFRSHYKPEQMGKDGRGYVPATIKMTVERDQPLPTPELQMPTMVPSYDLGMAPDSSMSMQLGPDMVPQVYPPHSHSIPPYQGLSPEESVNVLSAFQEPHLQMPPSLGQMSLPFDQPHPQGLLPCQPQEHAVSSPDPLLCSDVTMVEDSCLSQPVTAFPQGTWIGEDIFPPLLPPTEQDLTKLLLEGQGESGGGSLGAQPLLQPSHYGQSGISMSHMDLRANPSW
Procedure: Degradation of STAT6 in endogenously tagged STAT6-HiBiT A549 cells was quantitatively measured using the Nano-Glo HiBiT Lytic Detection System (Promega, 3040). A549 (STAT6-HiBiT) cells were seeded in 384-well plates with a density of 1.25k cells per well in 20 μl fresh media. Compounds were then added to the assay plates using the Apricot S3 with a final top concentration of up to 10 uM in a 4-fold dilution series with total of 10 doses. The assay plates were then incubated for 24 hours at 37° C. under 5% CO2. At the assay endpoint, 20 μL of Nano-Glo HiBiT Lytic Reagent was added to each well and agitated on a plate shaker at 300 rpm for 10 minutes at room temperature. Luminescence was read on PHERAStar FSX Instrument (Is integration time). The data was analyzed by GraphPad Prism and the dose dependent STAT6 degradation was fit using the four-parameter inhibitor vs. response nonlinear regression.
The letter codes for DC50 (nM) include: A (<1 nM): B (1-10 nM); C (>10-100 nM); D (>100-1000 nM); E (>1000 nM); and F (not tested). The letter codes for Dmax (%) include: A (>90%); B (>70-90%); C (>50-70%); D (<50%): and E (not tested).

STAT6 [3] = biological target: T2, STAT6; assay: STAT6 MSD degradation in A549 cells; format: cell-based; settings: 24 h
Procedure: Degradation of STAT6 in cells was quantitatively measured using Meso Scale Discovery (MSD) technology. A549 cells were seeded in 96-well plates with a density of 1.5×10e4 to 5×10e5 cells per well in 100 μl fresh media. Compounds were then added to the assay plates with a final top concentration of up to 10 uM in a 1:3 dilution series with total of 9 doses. The assay plates were then incubated for 4 to 24 hours at 37° C. under 5% CO2. The assay plates were then centrifuged for 5 minutes and the cell pellets were treated with 100 μl/well RIPA lysis buffer (Boston Bioproducts, BP-115D) with protease and phosphatase inhibitors (Roche, 05892791001 and 04906837001). To prepare the MSD assay plates (MSD, L15XA), the plates were coated with the capture antibody (Abnova, H00006778) in PBS, at 40 μl/well. The plates were then incubated overnight at 4° C., washed 1 time with […] TBST buffer (Cell Signaling Technology, #9997S) and blocked with 150 μl/well blocking buffer (MSD, R93BA-4). Cell lysates were then added to MSD assay plates and the plates were incubated at room temperature for 1 hour. The plates were then washed 3 times with 150 μl/well TBST buffer and 25 μl/well primary detection antibody (Cell Signaling Technology, #5397S). The assay plates were then incubated at room temperature for 1 hour, washed 3 times with 150 μl/well TBST buffer, and 25 μl/well secondary detection antibody, SULFO-TAG anti-rabbit antibody (MSD, R32AB-1) were added. The assay plates were then incubated at room temperature for 1 hour, washed 3 times with 150 μl/well TBST buffer, and 150 μl/well MSD reading buffer (MSD, R92TC-2) were added. The plates were then analyzed by an MSD reader. The data was analyzed by GraphPad Prism and the dose dependent STAT6 degradation was fit using the four-parameter inhibitor vs. response nonlinear regression.
The letter codes for DC50 (nM) include: A (<1 nM); B (1-10 nM); C (>10-100 nM); D (>100-1000 nM); E (>1000 nM); and F (not tested). The letter codes for Dmax (%) include: A (>90%); B (>70-90%); C (>50-70%); D (<50%); and E (not tested).

Structure (SMILES) | IC50 [1] | DC50 (STAT6 [2]) | Dmax (STAT6 [2]) | DC50 (STAT6 [3]) | Dmax (STAT6 [3])
COc1cc(N2CCN(CCc3cccc4c3n(C)c(=O)n4C3CCC(=O)NC3=O)CC2)ccc1-c1cc(Nc2ccccn2)c(F)c(C2=CCCN(C(=O)CCn3ccnn3)C2)c1 (stereo not drawn) [I-1272] | 0.1 to 1 µM | < 1 nM | > 90% | – | –
COc1cc(N2CCN(CCc3cccc4c3n(C)c(=O)n4C3CCC(=O)NC3=O)CC2)ccc1-c1cc(C2=CCCN(C(=O)CCn3ccnn3)C2)cc2c1CN(C(=O)N(C)C)C2 (stereo not drawn) [I-1334] | 1 to 10 µM | 10 to 100 nM | 70 to 90% | – | –
CN(C)C(=O)c1cc2ccc(C3=CCCN(C(=O)C4Cc5c(cccc5OCCOCCOCCOCCOCCc5cccc6c5n(C)c(=O)n6C5CCC(=O)NC5=O)CN4C=O)C3)cc2[nH]1 (stereo not drawn) [I-61] | – | – | – | > 1000 nM | < 50%
COc1cc(N2CCN(CCc3cccc4c3n(C)c(=O)n4C3CCC(=O)NC3=O)CC2)ccc1-c1cc(C2=CCCN(C(=O)CCn3ccnn3)C2)ccc1-n1ccccc1=O (stereo not drawn) [I-1309] | – | > 1000 nM | < 50% | – | –
COc1cc(N2CCN(CCc3cccc4c3n(C)c(=O)n4C3CCC(=O)NC3=O)CC2)ccc1-c1cc(C2=CCCN(C(=O)CCn3ccnn3)C2)cnc1CNC(=O)N(C)C (stereo not drawn) [I-1336] | 1 to 10 µM | > 1000 nM | < 50% | – | –
CN(C)C(=O)c1cc2ccc(C3=CCCN(C(=O)C4Cc5c(cccc5OCCOCCOCCOCCOCCc5ccc6c(c5)n(C)c(=O)n6C5CCC(=O)NC5=O)CN4C=O)C3)cc2[nH]1 (stereo not drawn) [I-105] | – | – | – | > 1000 nM | < 50%
COc1cc(N2CCN(CCc3cccc4c3n(C)c(=O)n4C3CCC(=O)NC3=O)CC2)ccc1-c1cc(C(=O)N(C)C)ccc1C1=CCCN(C(=O)CCn2ccnn2)C1 (stereo not drawn) [I-1323] | 0.1 to 1 µM | 100 to 1000 nM | 70 to 90% | – | –
COc1cc(N2CCN(CCc3cccc4c3n(C)c(=O)n4C3CCC(=O)NC3=O)CC2)ccc1-c1cc(C2=CCCN(C(=O)CCn3ccnn3)C2)ccc1C(=O)N(C)C (stereo not drawn) [I-1282] | 10 to 100 µM | > 1000 nM | < 50% | – | –
COc1cc(N2CCN(CCc3cccc4c3n(C)c(=O)n4C3CCC(=O)NC3=O)CC2)ccc1-c1cc(C2=CCCN(C(=O)CCn3ccnn3)C2)cc2ccncc12 (stereo not drawn) [I-1401] | 10 to 100 µM | – | – | – | –
COc1cc(N2CCN(CCc3cccc4c3n(C)c(=O)n4C3CCC(=O)NC3=O)CC2)ccc1-c1cc(C2=CCCN(C(=O)CCn3ccnn3)C2)c(F)c2ccncc12 (stereo not drawn) [I-1271] | 1 to 10 µM | > 1000 nM | < 50% | – | –
COc1cc(N2CCN(CCc3cccc4c3n(C)c(=O)n4C3CCC(=O)NC3=O)CC2)ccc1-c1cc(C2CCCCN(C(=O)CCn3ccnn3)C2)c(F)c2[nH]c(C(=O)N(C)C)cc12 (stereo not drawn) [I-1292] | – | < 1 nM | > 90% | – | –
COc1cc(N2CCN(CCc3cccc4c3n(C)c(=O)n4C3CCC(=O)NC3=O)CC2)ccc1-c1cc(C2=CCCN(C(=O)CCn3ccnn3)C2)c(F)c2cnccc12 (stereo not drawn) [I-1270] | 1 to 10 µM | > 1000 nM | < 50% | – | –
COc1cc(N2CCN(CCc3cccc4c3n(C)c(=O)n4C3CCC(=O)NC3=O)CC2)ccc1-c1cc(C2=CCCN(C(=O)CCn3ccnn3)C2)cc2cc(C(=O)N(C)C)cnc12 (stereo not drawn) [I-1338] | 10 to 100 µM | > 1000 nM | < 50% | – | –
COc1cc(N2CCN(CCc3cccc4c3n(C)c(=O)n4C3CCC(=O)NC3=O)CC2)ccc1-c1cc(C2=CCCN(C(=O)CCn3ccnn3)C2)cc2ccc(C(=O)N(C)C)cc12 (stereo not drawn) [I-1293] | < 0.1 µM | < 1 nM | > 90% | – | –
COc1cc(N2CCN(CCc3cccc4c3n(C)c(=O)n4C3CCC(=O)NC3=O)CC2)ccc1-c1cc(NC(=O)CCn2ccnn2)ccc1-c1ncc(C(=O)N(C)C)[nH]1 (stereo not drawn) [I-1324] | 10 to 100 µM | > 1000 nM | < 50% | – | –
COc1cc(N2CCN(CCc3cccc4c3n(C)c(=O)n4C3CCC(=O)NC3=O)CC2)ccc1-c1cc(-c2cccc(C(=O)N(C)C)c2)c(F)c2[nH]c(C(=O)N(C)C)cc12 (stereo not drawn) [I-1302] | 1 to 10 µM | 1 to 10 nM | 70 to 90% | – | –
